The target of this experiment is CDK8 (Homo sapiens, UniProt P49336). In words: LanthaScreen kinase activity assay (Thermo Fisher SelectScreen kinase profiling service). It is filed as biochemical. The settings on record: for IC50: CDK8, dose-response at 10,000, 3000, 1000, 300 and 100 nM; for inhibition at 10 µM: CDK8 inhibition, compounds tested at 10 μM, read-out: Inhibitory activity (10 μM). Here is the method:
Selected compounds were tested using the Thermo Fisher Scientific SelectScreen kinase profiling service (www.thermofisher.com/selectscreen). The LanthaScreen kinase activity assay was used. In short, a reaction between fluorescein‐labeled substrate and ATP is performed in a container. The reaction is ceased with the addition of EDTA. A terbium‐labeled antibody is added to detect phosphorylated fluorescein‐labeled substrate. A ratio between the acceptor and donor signal is an indicator of the amount of phosphorylated substrate present in the reaction, thereby indicating kinase activity.

SMILES strings stand for the structures.

Sequence of CDK8 (P49336 whole entry): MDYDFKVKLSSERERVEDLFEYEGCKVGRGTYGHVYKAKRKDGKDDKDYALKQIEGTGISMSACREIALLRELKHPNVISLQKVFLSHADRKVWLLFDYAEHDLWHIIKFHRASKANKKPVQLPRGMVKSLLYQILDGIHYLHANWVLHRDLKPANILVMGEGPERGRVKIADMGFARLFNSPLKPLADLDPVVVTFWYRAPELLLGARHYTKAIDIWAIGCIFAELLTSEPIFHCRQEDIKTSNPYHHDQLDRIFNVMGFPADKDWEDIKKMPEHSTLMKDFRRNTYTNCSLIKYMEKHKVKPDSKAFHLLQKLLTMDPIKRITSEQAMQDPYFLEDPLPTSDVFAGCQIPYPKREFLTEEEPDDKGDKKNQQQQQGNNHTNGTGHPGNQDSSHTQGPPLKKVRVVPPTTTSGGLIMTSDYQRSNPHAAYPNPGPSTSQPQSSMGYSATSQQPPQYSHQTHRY
Sequence of CDK8 (P24863 whole entry partner): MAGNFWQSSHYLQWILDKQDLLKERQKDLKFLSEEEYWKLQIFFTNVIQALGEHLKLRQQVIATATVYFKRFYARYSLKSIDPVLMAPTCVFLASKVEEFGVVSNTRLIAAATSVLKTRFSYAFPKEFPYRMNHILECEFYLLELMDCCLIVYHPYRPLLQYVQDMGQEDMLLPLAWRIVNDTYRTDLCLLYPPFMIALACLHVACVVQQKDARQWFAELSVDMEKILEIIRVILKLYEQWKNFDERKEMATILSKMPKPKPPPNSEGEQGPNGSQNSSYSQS

By IC50 is commonly meant the concentration that gives 50% inhibition. Lower therefore signals greater potency. For `CCCn1cc(-c2ccncc2)cc1C(=O)N1CCC(C)CC1` [P076‐1448], 2260 nM corresponded to half-maximal inhibition (IC50) and the inhibition at 10 µM came out at 73%.
The like results for `CCc1cc2c(N3CCCC(C(=O)N4CCN(c5ccc(F)cc5)CC4)C3)ncnc2s1` (stereo not drawn) [G887‐0711] were, in that order, 1160 nM and > 90%.
The like results for `Cc1ccc(NC(=O)Nc2cnn(-c3ncncc3N3CCOCC3)c2)cc1C` [T479‐0984] were, in that order, 99.9 nM and > 90%.
For `COc1ccc2ncc(C#N)c(N3CCC(C(=O)Nc4ccc(F)c(C)c4)CC3)c2c1` [L483‐0192] the same measures were 1840 nM and 71%.
As for `CCn1cc(-c2ccncc2)cc1C(=O)N1CCN(c2ccc(Cl)cc2)CC1` [P076‐1220], the IC50 amounted to 4440 nM and the inhibition at 10 µM was 71%.
The like results for `CC1CCN(C(=O)c2ccc3ncnc(N4CCCCC4)c3c2)CC1` [M628‐0340] were, in that order, 1920 nM and 77%.

Values taken from paper PMC11081523, “An ensemble machine learning model generates a focused screening library for the identification of CDK8 inhibitors” (Protein Science : A Publication of the Protein Society, 2024).
